Measured values published in patent US8598087B2, “Crystalline form of 4-[5-[3-chloro-5-(trifluoromethyl)phenyl]-4, 5-dihydro-5-(trifluoromethyl)-3-isoxazolyl]-N-[2-0X0-2-[(2,2,2-trifluoroethyl)amino]ethyl]-1- naph-thalenecarboxamide” (E. I. du Pont de Nemours and Company, priority 2010, dated 2013).
Entries after “also recorded” stand apart in the source; their conditions may differ.

Key:
Type in all cases: physicochemical
[1] = Interconversion slurry experiments (relative stability of solid forms, XRPD)
Procedure: Interconversion slurry experiments were performed in a variety of solvents at different temperatures. Sufficient amounts of Compound 1 were added to solvents in vials so that excess solid remained. The mixtures were agitated in sealed vials at the selected temperature and the solids were isolated by filtration after the selected time and analyzed by XRPD.

[2] = Physical stability / hygroscopicity of polymorph Form A (relative humidity exposure); conditions: 5 to 95% relative humidity at 25° C. (5 hours)
Procedure: The physical stability of polymorph Form A was characterized. A samples of Form A exposed to 5 to 95% relative humidity at 25° C.

[3] = Physical stability of amorphous Compound 1 (vapor stress and slurry, XRPD)
Procedure: The physical stability of the amorphous material was characterized. […] Amorphous Compound 1 was also slurried in methanol\water (1:1) for 5 days at 60° C. resulting in irregular fragments of crystals determined to be Form B by XRPD.

[4] = Physical stability of polymorph Form B under humidity stress (XRPD)
Vacuum drying experiment = assay: Vacuum drying experiment

O=C(CNC(=O)c1ccc(C2=NOC(c3cc(Cl)cc(C(F)(F)F)c3)(C(F)(F)F)C2)c2ccccc12)NCC(F)(F)F (centres unmarked) [Form A, 4-[5-[3-chloro-5-(trifluoromethyl)phenyl]-4,5-dihydro-5-(trifluoromethyl)-3-isoxazolyl]-N-[2-oxo-2-[(2,2,2-trifluoroethyl)amino]ethyl]-1-naphthalenecarboxamide]
relative physical stability of solid forms ([1]; in acetonitrile): metastable solid form
hygroscopicity [2]: non-hygroscopic
weight change on exposure to relative humidity [2]: negligible weight change

O=C(CNC(=O)c1ccc(C2=NOC(c3cc(Cl)cc(C(F)(F)F)c3)(C(F)(F)F)C2)c2ccccc12)NCC(F)(F)F (racemic) [Compound 1, 4-[5-[3-chloro-5-(trifluoromethyl)phenyl]-4,5-dihydro-5-(trifluoromethyl)-3-isoxazolyl]-N-[2-oxo-2-[(2,2,2-trifluoroethyl)amino]ethyl]-1-naphthalenecarboxamide]
solid form yielded by slurry (XRPD) ([1]; acetonitrile, 3 days at 83° C.): Pattern G solid
solid form yielded by slurry (XRPD) ([1]; acetonitrile, 8 days at 0° C.): Pattern G solid
solid form yielded by slurry (XRPD) ([1]; acetonitrile/water (9:1), 3 days at 83° C.): polymorph Form B
solid form yielded by slurry (XRPD) ([1]; acetonitrile/water (9:1), 8 days at 0° C.): Pattern G solid

O=C(CNC(=O)c1ccc(C2=NOC(c3cc(Cl)cc(C(F)(F)F)c3)(C(F)(F)F)C2)c2ccccc12)NCC(F)(F)F (centres unmarked) [Amorphous Compound 1, 4-[5-[3-chloro-5-(trifluoromethyl)phenyl]-4,5-dihydro-5-(trifluoromethyl)-3-isoxazolyl]-N-[2-oxo-2-[(2,2,2-trifluoroethyl)amino]ethyl]-1-naphthalenecarboxamide]
physical stability of the amorphous solid ([3]; pure solid form, conclusion of vapor stress and slurry): physically unstable and readily crystallized
solid form obtained after slurry (by XRPD) ([3]; slurried in methanol\water (1:1) for 5 days at 60° C.): Form B
solid form obtained after vapor stress (by XRPD) ([3]; vapor stressed under acetonitrile at 25° C. for 2 days): Pattern G material

O=C(CNC(=O)c1ccc(C2=NOC(c3cc(Cl)cc(C(F)(F)F)c3)(C(F)(F)F)C2)c2ccccc12)NCC(F)(F)F (centres unmarked) [Form B, 4-[5-[3-chloro-5-(trifluoromethyl)phenyl]-4,5-dihydro-5-(trifluoromethyl)-3-isoxazolyl]-N-[2-oxo-2-[(2,2,2-trifluoroethyl)amino]ethyl]-1-naphthalenecarboxamide]
relative physical stability of solid forms ([1]; in organic solvent/water mixtures especially methanol/water): most stable solid form
change by XRPD after humidity stress ([4]; 60% relative humidity (25° C.) for 1 month): unchanged by XRPD
change by XRPD after humidity stress ([4]; 75% relative humidity (40° C.) for 1 month): unchanged by XRPD
physical stability of Form B ([4]; pure solid form, conclusion of humidity stress conditions tested): physically stable; also recorded: stable under the conditions tested

O=C(CNC(=O)c1ccc(C2=NOC(c3cc(Cl)cc(C(F)(F)F)c3)(C(F)(F)F)C2)c2ccccc12)NCC(F)(F)F (centres unmarked) [Pattern G solid]
relative physical stability of solid forms ([1]; in acetonitrile): most stable solid form
solid form obtained after vacuum drying (Vacuum drying experiment; vacuum drying (36-68 mtorr) at 50° C. for 4 hours): Form A
solid form obtained after vacuum drying (Vacuum drying experiment; vacuum drying (51 mtorr) at 70° C. for 5 hours): solid glass
